From patent US6737383B1, “Herbicidal oxadiazolidines” (priority 1999, dated 2004)

Experiments:
bedstraw = assay: Test B pre/postemergence bedstraw; assay type: in vivo, Galium aparine
In short: (§1)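 Test chemicals in a non-phytotoxic solvent mixture with surfactant were sprayed preemergence onto planted seeds and postemergence onto plants 2 to 18 cm tall (1- to 4-leaf stage). After twelve to sixteen days in a greenhouse, injury was visually rated against untreated controls from 0 (no effect) to 10 (complete control).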

morningglory = assay: Test B pre/postemergence morningglory; assay type: in vivo, Ipomoea hederacea
In short: as §1

sugar beet = assay: Test B pre/postemergence sugar beet; assay type: in vivo, Beta vulgaris
In short: as §1

soybean = assay: Test B pre/postemergence soybean; assay type: in vivo, Glycine max
In short: as §1

surinam grass = assay: Test B pre/postemergence surinam grass; assay type: in vivo, Brachiaria decumbens
In short: as §1

crabgrass = assay: Test B pre/postemergence crabgrass; assay type: in vivo, Digitaria sanguinalis
In short: as §1

purple nutsedge = assay: Test B pre/postemergence purple nutsedge; assay type: in vivo, Cyperus rotundus
In short: as §1

wheat = assay: Test B pre/postemergence wheat; assay type: in vivo, Triticum aestivum
In short: as §1

cocklebur = assay: Test B pre/postemergence cocklebur; assay type: in vivo, Xanthium strumarium
In short: as §1

rice = assay: Test B flood test rice; assay type: in vivo, Oryza sativa
In short: (§2)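 Read-out is a visual response score from 0 (no effect) to 10 (complete control), assigned by comparison with untreated controls. Treatment was applied at the 2-leaf stage, and plants stayed in the greenhouse for twelve to sixteen days before scoring.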

giant foxtail = assay: Test B pre/postemergence giant foxtail; assay type: in vivo, Setaria faberii
In short: as §1

smallflower flatsedge = assay: Test B flood test smallflower flatsedge; assay type: in vivo, Cyperus difformis
In short: as §2

rape = assay: Test B pre/postemergence rape; assay type: in vivo, Brassica napus
In short: as §1

corn = assay: Test B pre/postemergence corn; assay type: in vivo, Zea mays
In short: as §1

velvetleaf = assay: Test B pre/postemergence velvetleaf; assay type: in vivo, Abutilon theophrasti
In short: as §1

bamyardgrass = assay: Test B flood test barnyardgrass; assay type: in vivo, Echinochloa crus-galli
In short: as §2

duck salad = assay: Test B flood test duck salad; assay type: in vivo, Heteranthera limosa
In short: as §2

wild oat = assay: Test B pre/postemergence wild oat; assay type: in vivo, Avena fatua
In short: as §1

blackgrass = assay: Test B pre/postemergence blackgrass; assay type: in vivo, Alopecurus myosuroides
In short: as §1

pigweed = assay: Test B pre/postemergence pigweed; assay type: in vivo, Amaranthus retroflexus
In short: as §1

[1] = Postemergence, Rate 62 g/ha, scale 0 to 10, 0 is no effect, 10 is complete control
[2] = Preemergence, Rate 62 g/ha, scale 0 to 10 (0 no effect, 10 complete control)
[3] = Preemergence, Rate 125 g/ha, scale of 0 to 10 where 0 is no effect and 10 is complete control
[4] = Preemergence, Rate 500 g/ha, scale of 0 to 10 where 0 is no effect and 10 is complete control
[5] = Postemergence, Rate 250 g/ha, scale of 0 to 10, 0 is no effect, 10 is complete control
[6] = Postemergence, Rate 500 g/ha, scale of 0 to 10 where 0 is no effect and 10 is complete control
[7] = Preemergence, Rate 250 g/ha, scale 0 to 10 (0 no effect, 10 complete control)
[8] = Rate 62 g/ha, flood test species, Pre-emergence, visual evaluation after twelve to sixteen days
[9] = Rate 125 g/ha, under heading Pre-emergence, flood test species, visual evaluation after twelve to sixteen days
[10] = Rate 250 g/ha, Pre-emergence (flood test species), scale 0 to 10, 0 is no effect, 10 is complete control
[11] = Rate 500 g/ha, Pre-emergence section of Table B, 0 to 10 scale (0 no effect, 10 complete control)

CC(=O)NCn1c(=O)on(C(=O)N(c2ccc(F)cc2F)C(C)C)c1=O [Compound 622]
Plant response rating, Bedstraw (bedstraw; [1]): 0
Bedstraw plant response rating (bedstraw; [2]): 0
Bedstraw plant response rating (bedstraw; [3]): 0
Plant response rating, Bedstraw (bedstraw; [4]): 2
Plant response rating, Morningglory (morningglory; [1]): 0
Morningglory plant response rating (morningglory; [5]): 2
Plant response rating, Morningglory (morningglory; [6]): 2
Morningglory plant response rating (morningglory; [2]): 0
Morningglory plant response rating (morningglory; [3]): 0
Plant response rating, Morningglory (morningglory; [7]): 0
Plant response rating, Morningglory (morningglory; [4]): 0
Plant response rating, Sugarbeets (sugar beet; [1]): 0
Sugarbeets plant response rating (sugar beet; [5]): 2
Sugarbeets plant response rating (sugar beet; [2]): 0
Sugarbeets plant response rating (sugar beet; [3]): 0
Plant response rating, Sugarbeets (sugar beet; [7]): 0
Plant response rating, Sugarbeets (sugar beet; [4]): 3
Plant response rating, Soybean (soybean; [1]): 4
Soybean plant response rating (soybean; [5]): 6
Soybean plant response rating (soybean; [2]): 0
Soybean plant response rating (soybean; [3]): 0
Plant response rating, Soybean (soybean; [7]): 0
Plant response rating, Soybean (soybean; [4]): 0
Plant response rating, B. signalgrass (surinam grass; [1]): 0
B. signalgrass plant response rating (surinam grass; [5]): 0
Plant response rating, B. signalgrass (surinam grass; [6]): 0
B. signalgrass plant response rating (surinam grass; [2]): 0
B. signalgrass plant response rating (surinam grass; [3]): 0
Plant response rating, B. signalgrass (surinam grass; [7]): 0
Plant response rating, B. signalgrass (surinam grass; [4]): 4
Plant response rating, Crabgrass (crabgrass; [1]): 2
Plant response rating, Crabgrass (crabgrass; [6]): 5
Crabgrass plant response rating (crabgrass; [2]): 6
Crabgrass plant response rating (crabgrass; [3]): 6
Plant response rating, Crabgrass (crabgrass; [7]): 7
Plant response rating, Crabgrass (crabgrass; [4]): 8
Plant response rating, Nutsedge (purple nutsedge; [1]): 0
Nutsedge plant response rating (purple nutsedge; [5]): 0
Plant response rating, Nutsedge (purple nutsedge; [6]): 0
Nutsedge plant response rating (purple nutsedge; [2]): 0
Nutsedge plant response rating (purple nutsedge; [3]): 0
Plant response rating, Nutsedge (purple nutsedge; [7]): 0
Plant response rating, Nutsedge (purple nutsedge; [4]): 3
Plant response rating, Wheat (wheat; [1]): 0
Wheat plant response rating (wheat; [5]): 0
Wheat plant response rating (wheat; [2]): 0
Wheat plant response rating (wheat; [3]): 0
Plant response rating, Wheat (wheat; [7]): 0
Plant response rating, Wheat (wheat; [4]): 0
Plant response rating, Cocklebur (cocklebur; [1]): 0
Cocklebur plant response rating (cocklebur; [5]): 0
Plant response rating, Cocklebur (cocklebur; [6]): 2
Cocklebur plant response rating (cocklebur; [2]): 0
Cocklebur plant response rating (cocklebur; [3]): 0
Plant response rating, Cocklebur (cocklebur; [7]): 0
Plant response rating, Rice (0 to 10 scale, 0 is no effect, 10 is complete control) (rice; [8]): 0
Rice plant response rating (0 to 10 scale, 0 is no effect, 10 is complete control) (rice; [9]): 0
Rice plant response rating (rice; [10]): 0
Rice plant response rating (rice; [11]): 0
Plant response rating, Giant foxtail (giant foxtail; [1]): 0
Giant foxtail plant response rating (giant foxtail; [5]): 6
Plant response rating, Giant foxtail (giant foxtail; [6]): 7
Giant foxtail plant response rating (giant foxtail; [2]): 4
Plant response rating, Giant foxtail (giant foxtail; [7]): 9
Plant response rating, Giant foxtail (giant foxtail; [4]): 9
Plant response rating, S. Flatsedge (0 to 10 scale, 0 is no effect, 10 is complete control) (smallflower flatsedge; [8]): 0
S. Flatsedge plant response rating (0 to 10 scale, 0 is no effect, 10 is complete control) (smallflower flatsedge; [9]): 0
S. Flatsedge plant response rating (smallflower flatsedge; [10]): 0
S. Flatsedge plant response rating (smallflower flatsedge; [11]): 0
Plant response rating, Rape (rape; [1]): 0
Rape plant response rating (rape; [5]): 0
Plant response rating, Rape (rape; [6]): 0
Rape plant response rating (rape; [2]): 0
Rape plant response rating (rape; [3]): 0
Plant response rating, Rape (rape; [7]): 0
Plant response rating, Rape (rape; [4]): 0
Plant response rating, Corn (corn; [1]): 0
Corn plant response rating (corn; [5]): 0
Plant response rating, Corn (corn; [6]): 0
Corn plant response rating (corn; [2]): 0
Corn plant response rating (corn; [3]): 0
Plant response rating, Corn (corn; [7]): 0
Plant response rating, Corn (corn; [4]): 0
Plant response rating, Velvetleaf (velvetleaf; [1]): 0
Velvetleaf plant response rating (velvetleaf; [5]): 0
Velvetleaf plant response rating (velvetleaf; [2]): 0
Velvetleaf plant response rating (velvetleaf; [3]): 0
Plant response rating, Velvetleaf (velvetleaf; [7]): 0
Plant response rating, Velvetleaf (velvetleaf; [4]): 4
Plant response rating, Barnyardgrass (0 to 10 scale, 0 is no effect, 10 is complete control) (bamyardgrass; [8]): 0
Barnyardgrass plant response rating (0 to 10 scale, 0 is no effect, 10 is complete control) (bamyardgrass; [9]): 0
Barnyardgrass plant response rating (bamyardgrass; [10]): 0
Barnyardgrass plant response rating (bamyardgrass; [11]): 0
Plant response rating, Ducksalad (0 to 10 scale, 0 is no effect, 10 is complete control) (duck salad; [8]): 0
Ducksalad plant response rating (0 to 10 scale, 0 is no effect, 10 is complete control) (duck salad; [9]): 0
Ducksalad plant response rating (duck salad; [10]): 0
Ducksalad plant response rating (duck salad; [11]): 0
Plant response rating, Wild oats (wild oat; [1]): 0
Wild oats plant response rating (wild oat; [5]): 0
Wild oats plant response rating (wild oat; [2]): 0
Wild oats plant response rating (wild oat; [3]): 0
Plant response rating, Wild oats (wild oat; [7]): 0
Plant response rating, Wild oats (wild oat; [4]): 3
Plant response rating, Blackgrass (blackgrass; [1]): 0
Blackgrass plant response rating (blackgrass; [5]): 0
Plant response rating, Blackgrass (blackgrass; [6]): 0
Blackgrass plant response rating (blackgrass; [2]): 1
Blackgrass plant response rating (blackgrass; [3]): 2
Plant response rating, Blackgrass (blackgrass; [7]): 3
Plant response rating, Blackgrass (blackgrass; [4]): 6
Plant response rating, Redroot pigweed (pigweed; [1]): 0
Redroot pigweed plant response rating (pigweed; [5]): 0
Redroot pigweed plant response rating (pigweed; [2]): 4
Redroot pigweed plant response rating (pigweed; [3]): 7
Plant response rating, Redroot pigweed (pigweed; [7]): 10
Plant response rating, Redroot pigweed (pigweed; [4]): 10
